In paper PMC9571937, “Synthesis and Structure–Activity Relationship Studies of Pyrido [1,2-e]Purine-2,4(1H,3H)-Dione Derivatives Targeting Flavin-Dependent Thymidylate Synthase in Mycobacterium tuberculosis” (Molecules, 2022):
Where two headings read alike, the source gives them in different places.

Legend:
[1] = target: ThyX; settings: cited from earlier work
[2] = target: T1, Mtb ThyX (Mycobacterium tuberculosis, UniProt P9WG57); test: M. tuberculosis ThyX NADPH oxidase assay; format: biochemical; settings: for Inhibition % (Mtb ThyX) / inhibition at 200 µM: 200 μM compound
T1 sequence (P9WG57 whole entry): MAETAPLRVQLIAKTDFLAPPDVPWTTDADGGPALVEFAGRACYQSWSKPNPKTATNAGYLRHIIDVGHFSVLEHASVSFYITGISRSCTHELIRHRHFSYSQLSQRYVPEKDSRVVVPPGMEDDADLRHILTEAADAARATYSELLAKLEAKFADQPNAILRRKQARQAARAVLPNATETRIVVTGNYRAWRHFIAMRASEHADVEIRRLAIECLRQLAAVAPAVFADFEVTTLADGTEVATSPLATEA

[3] = system: viral pathogens; test: Evaluation on viral pathogens
[4] = target: T1, Mtb ThyX; test: M. tuberculosis ThyX tritium release assay; format: biochemical; settings: 200 µM compound; for ThyX inhibition, tritium release assay: 200 µM
[5] = in vitro; format: cell-based; settings: human
Procedure: Assays were performed in human peripheral blood mononuclear (PBM) cells via MTS assay using the CellTiter 96® Non-Radioactive Cell Proliferation (Promega) kit. Cytotoxicity was expressed as the concentration of test compounds that inhibited cell growth by 50% (CC50).

[6] = 50 µM inhibitor concentration, read-out: ThyX inhibition at 50 µM of inhibitors
[7] = NADPH oxidase assay, 50 µM FAD, read-out: Inhibition % (Mtb ThyX)
[8] = absence of added FAD, read-out: ThyX inhibition without FAD addition

In the case of `O=C1C(O)=C(c2ccco2)C(=O)c2ccccc21` [Compound 2], the Ki ([1]; read-out: inhibitory Ki against ThyX) is given as 28 nM.
For `Cc1cc(N2CCN(C(=O)CCN3C(=O)COc4ccccc43)CC2)nc(C(C)C)n1` [Compound B1-PP146, reference compound], the IC50 ([1]; read-out: IC50 against ThyX) is listed as 690 nM and the inhibition at 50 µM ([2]; positive control, value at 50 μM, NADPH oxidase assay, read-out: Inhibition % (Mtb ThyX)) is listed as 95.1%.
In the case of `O=c1[nH]c2c(nc3ccccn32)c(=O)n1-c1ccc(F)cc1` [Compound 9a, 3-(4-Fluorophenyl)pyrido [1,2-e]purine-2,4(1H,3H)-dione], the “activity on viral pathogens” value [3] is reported as “some promiscuous activity”, the toxicity ([3]; evaluation on viral pathogens) is reported as “without toxicity” and the inhibition at 50 µM [2, 6] is reported as 18.4%. For the same compound, the “Inhibition % (Mtb ThyX)” value ([2]; NADPH oxidase assay, 50 µM FAD) was 59.4%, the inhibition at 200 µM [2, 7] was 59.5% and the inhibition at 200 µM [2, 8] was 76.1%. For the same compound, the IC50 ([2]; calculated for 9a) was 95000 nM and the inhibition at 200 µM [4] was 59.5%.
In the case of `O=c1[nH]c2c(nc3ccc(-c4ccccc4)cn32)c(=O)n1-c1ccc(F)cc1` [Compound 23a, 3-(p-Fluorophenyl)-8-phenyl-1H-purino [9,8-a]pyridine-2,4-dione], the CC50 [5] is reported as > 100000 nM and the inhibition at 200 µM [2, 7] is reported as 84.3%.
Work on `O=c1[nH]c2c(nc3ccccn32)c(=O)n1-c1ccc(Cl)cc1` [Compound 9b, 3-(4-Chlorophenyl)pyrido [1,2-e]purine-2,4(1H,3H)-dione] yielded an inhibition at 50 µM [2, 6] of 2.2%, an inhibition at 200 µM [2, 7] of 49.8% and an inhibition at 200 µM [2, 8] of 12.6%. For the same compound, the inhibition at 200 µM [4] was 77.1% and the “ThyX inhibition, tritium release assay” value [4] was 69.2%.
In the case of `Cc1ccc(-n2c(=O)[nH]c3c(nc4ccccn43)c2=O)cc1` [Compound 9d, 3-(p-Tolyl)pyrido [1,2-e]purine-2,4(1H,3H)-dione], the inhibition at 50 µM [2, 6] is reported as 2.6%, the “Inhibition % (Mtb ThyX)” value ([2]; NADPH oxidase assay, 50 µM FAD) is reported as 55.4% and the inhibition at 200 µM [2, 7] is reported as 55%. For the same compound, the inhibition at 200 µM [2, 8] was 20.4%, the inhibition at 200 µM [4] was 69.2% and the “ThyX inhibition, tritium release assay” value [4] was 77.1%.
For `CCCCCCCC(=O)NCC#Cc1cn(C2CC(O)C(COP(=O)(O)O)O2)c(=O)[nH]c1=O` (centres unmarked) [Compound 3], the IC50 ([1]; C5-modified dUMP analogs, read-out: IC50) is given as 910 nM.
In the case of `CCCCCCCC(=O)NCC#Cc1ccc2nc3c(=O)n(-c4ccc(F)cc4)c(=O)[nH]c3n2c1` [Compound 21f, N-[3-[3-(p-fluorophenyl)-2,4-dioxo-1H-purino [9,8-a]pyridin-8-yl]prop-2-ynyl]octanamide], the inhibition at 200 µM [2, 7] is reported as 16.9%.
With `O=c1c2nc3ccccn3c2n(Cc2ccc([N+](=O)[O-])cc2)c(=O)n1-c1ccc(F)cc1` [Compound 13d, 3-(p-Fluorophenyl)-1-[(p-nitrophenyl)methyl]purino [9,8-a]pyridine-2,4-dione] the inhibition at 200 µM [2, 7] was 0%.
In the case of `CCOC(=O)[C@@H]1CSC(c2ccccc2)N1C(=O)c1cn(CCCNC(=O)C(F)(F)F)nn1` (some centres unmarked) [Compound 1], the IC50 ([1]; read-out: IC50 against ThyX) is listed as 57 nM.
Compound `O=c1[nH]c2c(nc3ccc(Br)cn32)c(=O)n1-c1ccc(F)cc1` [Compound 19b, 8-Bromo-3-(p-fluorophenyl)pyrido [1,2-e]purine-2,4(1H,3H)-dione] has an inhibition at 200 µM [2, 7] of 5.4%.
